Counter-ions that a name gives are not always drawn.
Key:
[1] = Gravimetric Vapor Sorption (GVS); assay type: physicochemical; details: for GVS water uptake: 0-90% RH range, about 25° C.; for XRPD post GVS (form recovered after the experiment): after GVS cycle 0-90% RH
Description: Sorption isotherms were obtained using a SMS DVS Intrinsic moisture sorption analyzer, controlled by DVS Intrinsic Control software v1.0.1.2 (or v 1.0.1.3). The sample temperature was maintained at about 25° C. by the instrument controls. The humidity was controlled by mixing streams of dry and wet nitrogen, with a total flow rate of about 200 mL/min. The relative humidity was measured by a calibrated Rotronic probe (dynamic range of about 1.0-100% RH), located near the sample. The weight change, (mass relaxation) of the sample as a function of % RH was constantly monitored by the microbalance (accuracy ±0.005 mg). Typically, about 18-20 mg of sample was placed in a tared mesh stainless steel basket under ambient conditions. The sample was loaded and unloaded at about 40% RH and about 25° C. (typical room conditions). A moisture sorption isotherm was performed as outlined in Table 1 (2 scans giving 1 complete cycle). The standard isotherm was performed at about 25° C. at about 10% RH intervals over a 0-90% RH range. Data analysis was carried out using Microsoft Excel using DVS Analysis Suite v6.2 (or 6.1 or 6.0). The sample was recovered after completion of the isotherm and re-analysed by XRPD.

[2] = Storage at elevated temperature/humidity, solid form checked by XRPD

GVS water uptake [1]	GVS water uptake ([1]; listed as cocrystal) [% water uptake]	XRPD post GVS (form recovered after the experiment) [1]	XRPD post GVS (form recovered after the experiment) ([1]; listed as cocrystal)	Stability on storage at 25° C./97% RH (XRPD) ([2]; 25° C./97% RH, 7 days)	Stability on storage at 40° C./75% RH (XRPD) ([2]; 40° C./75% RH, 7 days)	Stability on storage at 40° C./75% RH (XRPD), screening sample ([2]; screening sample, 40° C./75% RH, 23 days)	Compound
ca. 1 % w/w	1	no change	Unchanged by XRPD				Obeticholic acid-ursodeoxycholic acid (2:1) cocrystal [OCA:UDCA cocrystal]
				amorphous	unchanged	possible form change	CC[C@H]1[C@@H](O)[C@@H]2[C@H](CC[C@]3(C)[C@@H]([C@H](C)CCC(=O)O)CC[C@@H]23)[C@@]2(C)CC[C@@H](O)C[C@@H]12 [obeticholic acid monoammonium salt]
